From ChEMBL document CHEMBL4390652, “Design, biological evaluation and X-ray crystallography of nanomolar multifunctional ligands targeting simultaneously acetylcholinesterase and glycogen synthase kinase-3” (Eur J Med Chem, 2019)

Legend:
[1] = biological target: Serine/threonine-protein kinase PLK4 (Homo sapiens) (UniProt O00444); assay: Binding affinity to wild-type human partial length PLK4 (M1 to S273 residues) expressed in mammalian expression system assessed as residual binding level at 10 uM by Kinomescan method relative to control
[2] = biological target: Dual specificity mitogen-activated protein kinase kinase 5 (Homo sapiens) (UniProt Q13163); assay: Binding affinity to wild-type human partial length MEK5 (L98 to P448 residues) expressed in mammalian expression system assessed as residual binding level at 10 uM by Kinomescan method relative to control
[3] = biological target: Serine/threonine-protein kinase PAK 3 (Homo sapiens) (UniProt O75914); assay: Binding affinity to wild-type human full length PAK3 (M1 to R544 residues) expressed in bacterial expression system assessed as residual binding level at 10 uM by Kinomescan method relative to control
[4] = biological target: Serine/threonine-protein kinase MRCK gamma (Homo sapiens) (UniProt Q6DT37); assay: Binding affinity to wild-type human partial length DMPK2 (S46 to S408 residues) expressed in bacterial expression system assessed as residual binding level at 10 uM by Kinomescan method relative to control
[5] = biological target: Serine/threonine-protein kinase Nek6 (Homo sapiens) (UniProt Q9HC98); assay: Binding affinity to wild-type human full length NEK6 (M8 to T313 residues) expressed in bacterial expression system assessed as residual binding level at 10 uM by Kinomescan method relative to control
[6] = biological target: Glycogen synthase kinase-3 alpha (Homo sapiens) (UniProt P49840); assay: Binding affinity to wild-type human full length GSK3A (M1 to S483 residues) expressed in bacterial expression system assessed as residual binding level at 10 uM by Kinomescan method relative to control
[7] = biological target: Mitogen-activated protein kinase kinase kinase kinase 5 (Homo sapiens) (UniProt Q9Y4K4); assay: Binding affinity to wild-type human partial length MAP4K5 (M1 to P297 residues) expressed in bacterial expression system assessed as residual binding level at 10 uM by Kinomescan method relative to control
[8] = biological target: Insulin receptor-related protein (Homo sapiens) (UniProt P14616); assay: Binding affinity to wild-type human partial length INSRR (R950 to E1278 residues) expressed in bacterial expression system assessed as residual binding level at 10 uM by Kinomescan method relative to control
[9] = test system: Receptor-type tyrosine-protein kinase FLT3 (Homo sapiens), P36888 [UNDEFINED MUTATION]; assay: Binding affinity to human partial length FLT3 ITD mutant expressed in bacterial expression system assessed as residual binding level at 10 uM by Kinomescan method relative to control
[10] = biological target: Dual specificity mitogen-activated protein kinase kinase 6 (Homo sapiens) (UniProt P52564); assay: Binding affinity to wild-type human partial length MEK6 (K36 to D334 residues) expressed in bacterial expression system assessed as residual binding level at 10 uM by Kinomescan method relative to control
[11] = biological target: Mitogen-activated protein kinase kinase kinase kinase 1 (Homo sapiens) (UniProt Q92918); assay: Binding affinity to wild-type human full length HPK1 (M1 to R799 residues) expressed in bacterial expression system assessed as residual binding level at 10 uM by Kinomescan method relative to control
[12] = biological target: Discoidin domain-containing receptor 2 (Homo sapiens) (UniProt Q16832); assay: Binding affinity to wild-type human partial length DDR2 (V555 to E855 residues) expressed in mammalian expression system assessed as residual binding level at 10 uM by Kinomescan method relative to control
[13] = biological target: Serine/threonine-protein kinase 32C (Homo sapiens) (UniProt Q86UX6); assay: Binding affinity to wild-type human partial length YANK3 (M68 to G486 residues) expressed in bacterial expression system assessed as residual binding level at 10 uM by Kinomescan method relative to control
[14] = biological target: Mitogen-activated protein kinase kinase kinase 3 (Homo sapiens) (UniProt Q99759); assay: Binding affinity to wild-type human partial length MAP3K3 (E320 to Y626 residues) expressed in mammalian expression system assessed as residual binding level at 10 uM by Kinomescan method relative to control
[15] = biological target: Ribosomal protein S6 kinase alpha-5 (Homo sapiens) (UniProt O75582); assay: Binding affinity to wild-type human partial length N-terminal RPS6KA5 kinase domain 1 expressed in bacterial expression system assessed as residual binding level at 10 uM by Kinomescan method relative to control
[16] = test system: Phosphatidylinositol 4,5-bisphosphate 3-kinase catalytic subunit alpha isoform (Homo sapiens), P42336 [H1047L]; assay: Binding affinity to human partial length PIK3CA H1047L mutant (R108 to N1068 residues) expressed in mammalian expression system assessed as residual binding level at 10 uM by Kinomescan method relative to control
[17] = biological target: Serine/threonine-protein kinase ICK (Homo sapiens) (UniProt Q9UPZ9); assay: Binding affinity to wild-type human partial length ICK (M1 to P314 residues) expressed in mammalian expression system assessed as residual binding level at 10 uM by Kinomescan method relative to control
[18] = biological target: Serine/threonine-protein kinase Sgk1 (Homo sapiens) (UniProt O00141); assay: Binding affinity to wild-type human partial length SGK (I60 to L431 residues) expressed in mammalian expression system assessed as residual binding level at 10 uM by Kinomescan method relative to control
[19] = biological target: Inhibitor of nuclear factor kappa-B kinase subunit alpha (Homo sapiens) (UniProt O15111); assay: Binding affinity to wild-type human full length IKK-alpha (M1 to E745 residues) expressed in mammalian expression system assessed as residual binding level at 10 uM by Kinomescan method relative to control
[20] = biological target: Misshapen-like kinase 1 (Homo sapiens) (UniProt Q8N4C8); assay: Binding affinity to wild-type human partial length MINK (M1 to K312 residues) expressed in mammalian expression system assessed as residual binding level at 10 uM by Kinomescan method relative to control
MDR1 = assay: in vitro; conditions: dog, MDCK-MDR1
Description: Efflux ratio of apparent permeability from basolateral to apical over apical to basolateral side in MDCK2-MDR1 cells by HPLC analysis

[21] = biological target: SRSF protein kinase 3 (Homo sapiens) (UniProt Q9UPE1); assay: Binding affinity to wild-type human partial length SRPK3 (P41 to P567 residues) expressed in bacterial expression system assessed as residual binding level at 10 uM by Kinomescan method relative to control
[22] = biological target: Serine/threonine-protein kinase PRP4 homolog (Homo sapiens) (UniProt Q13523); assay: Binding affinity to wild-type human partial length PRP4 (D657 to I1007 residues) expressed in bacterial expression system assessed as residual binding level at 10 uM by Kinomescan method relative to control
[23] = test system: eIF-2-alpha kinase GCN2 (Homo sapiens), Q9P2K8 [S808G]; assay: Binding affinity to wild-type human partial length GCN2 kinase domain 2 (R585 to T1018 residues) S808G mutant expressed in bacterial expression system assessed as residual binding level at 10 uM by Kinomescan method relative to control
[24] = biological target: Phosphatidylinositol 4,5-bisphosphate 3-kinase catalytic subunit alpha isoform (Homo sapiens) (UniProt P42336); assay: Binding affinity to wild-type human partial length PIK3CA (R108 to N1068 residues) expressed in mammalian expression system assessed as residual binding level at 10 uM by Kinomescan method relative to control

Mitogen-activated protein kinase kinase kinase kinase 1 (Homo sapiens), sequence (Q92918 whole entry, looked up, the tested form may be a part): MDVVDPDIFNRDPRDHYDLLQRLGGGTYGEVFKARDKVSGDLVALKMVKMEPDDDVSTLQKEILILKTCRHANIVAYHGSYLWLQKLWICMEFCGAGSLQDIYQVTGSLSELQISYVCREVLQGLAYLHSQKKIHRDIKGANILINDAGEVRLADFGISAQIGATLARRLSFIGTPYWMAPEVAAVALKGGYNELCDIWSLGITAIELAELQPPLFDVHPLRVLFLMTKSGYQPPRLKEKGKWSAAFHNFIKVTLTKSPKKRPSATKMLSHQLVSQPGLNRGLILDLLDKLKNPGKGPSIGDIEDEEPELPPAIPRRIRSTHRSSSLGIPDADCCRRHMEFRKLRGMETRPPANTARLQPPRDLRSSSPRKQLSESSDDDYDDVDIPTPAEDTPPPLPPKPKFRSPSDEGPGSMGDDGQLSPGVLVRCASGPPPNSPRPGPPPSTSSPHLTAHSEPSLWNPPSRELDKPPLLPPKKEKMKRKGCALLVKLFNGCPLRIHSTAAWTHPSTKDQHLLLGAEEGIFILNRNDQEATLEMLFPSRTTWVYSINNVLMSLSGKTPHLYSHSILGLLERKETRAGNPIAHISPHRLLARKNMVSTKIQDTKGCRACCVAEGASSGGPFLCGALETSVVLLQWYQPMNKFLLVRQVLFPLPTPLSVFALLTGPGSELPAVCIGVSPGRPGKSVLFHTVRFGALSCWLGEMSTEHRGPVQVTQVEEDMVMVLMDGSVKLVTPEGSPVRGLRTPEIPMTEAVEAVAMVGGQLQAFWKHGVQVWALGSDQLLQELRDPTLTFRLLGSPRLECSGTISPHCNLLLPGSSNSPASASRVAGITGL
Dual specificity mitogen-activated protein kinase kinase 5 (Homo sapiens), sequence (Q13163 whole entry, the tested form may be a part): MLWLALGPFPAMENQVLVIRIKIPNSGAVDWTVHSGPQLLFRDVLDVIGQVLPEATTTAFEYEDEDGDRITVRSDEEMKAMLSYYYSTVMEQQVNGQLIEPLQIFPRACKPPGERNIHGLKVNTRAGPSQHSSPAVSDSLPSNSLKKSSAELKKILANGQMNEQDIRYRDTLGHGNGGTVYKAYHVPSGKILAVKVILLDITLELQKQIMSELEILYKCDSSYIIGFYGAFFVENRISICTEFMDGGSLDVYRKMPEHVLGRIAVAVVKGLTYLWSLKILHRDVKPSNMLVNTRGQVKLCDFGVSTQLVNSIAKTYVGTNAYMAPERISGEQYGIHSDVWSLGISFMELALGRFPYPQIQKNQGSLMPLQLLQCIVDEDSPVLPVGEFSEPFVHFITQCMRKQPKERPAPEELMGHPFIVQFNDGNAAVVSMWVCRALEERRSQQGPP
Misshapen-like kinase 1 (Homo sapiens), sequence (Q8N4C8 whole entry, looked up, the tested form may be a part): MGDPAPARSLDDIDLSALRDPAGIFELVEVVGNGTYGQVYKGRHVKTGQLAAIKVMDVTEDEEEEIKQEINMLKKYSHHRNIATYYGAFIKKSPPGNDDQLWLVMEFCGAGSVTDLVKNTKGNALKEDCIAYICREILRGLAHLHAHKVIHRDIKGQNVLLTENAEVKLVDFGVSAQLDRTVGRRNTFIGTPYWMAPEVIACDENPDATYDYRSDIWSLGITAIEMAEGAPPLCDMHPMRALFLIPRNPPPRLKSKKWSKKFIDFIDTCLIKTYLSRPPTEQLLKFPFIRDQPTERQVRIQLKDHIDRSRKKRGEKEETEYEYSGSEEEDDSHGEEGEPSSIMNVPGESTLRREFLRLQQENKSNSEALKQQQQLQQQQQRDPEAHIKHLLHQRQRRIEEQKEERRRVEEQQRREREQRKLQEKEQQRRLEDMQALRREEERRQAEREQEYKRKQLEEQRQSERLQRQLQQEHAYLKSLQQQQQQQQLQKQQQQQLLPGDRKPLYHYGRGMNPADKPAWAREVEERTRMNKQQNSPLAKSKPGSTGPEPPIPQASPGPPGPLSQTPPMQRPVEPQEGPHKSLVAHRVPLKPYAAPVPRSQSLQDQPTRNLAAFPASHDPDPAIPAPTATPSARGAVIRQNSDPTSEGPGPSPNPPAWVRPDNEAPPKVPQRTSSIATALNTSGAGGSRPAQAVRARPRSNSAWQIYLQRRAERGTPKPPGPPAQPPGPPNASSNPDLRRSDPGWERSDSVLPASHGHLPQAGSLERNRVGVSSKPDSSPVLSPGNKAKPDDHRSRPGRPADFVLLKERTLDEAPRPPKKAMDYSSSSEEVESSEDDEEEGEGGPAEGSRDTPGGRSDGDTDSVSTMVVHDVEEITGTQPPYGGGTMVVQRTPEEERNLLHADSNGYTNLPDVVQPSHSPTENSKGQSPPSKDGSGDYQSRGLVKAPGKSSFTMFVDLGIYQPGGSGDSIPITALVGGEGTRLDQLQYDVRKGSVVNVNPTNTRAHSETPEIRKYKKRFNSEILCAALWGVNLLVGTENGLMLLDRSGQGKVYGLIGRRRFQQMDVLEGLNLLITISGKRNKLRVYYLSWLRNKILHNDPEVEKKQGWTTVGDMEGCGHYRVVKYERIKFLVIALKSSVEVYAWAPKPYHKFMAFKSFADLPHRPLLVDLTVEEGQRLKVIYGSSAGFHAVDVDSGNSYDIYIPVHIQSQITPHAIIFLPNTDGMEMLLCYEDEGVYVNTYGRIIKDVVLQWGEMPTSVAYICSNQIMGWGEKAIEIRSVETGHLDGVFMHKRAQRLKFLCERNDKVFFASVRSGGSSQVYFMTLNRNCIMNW
Glycogen synthase kinase-3 alpha (Homo sapiens), sequence (P49840 2-483 limits assumed): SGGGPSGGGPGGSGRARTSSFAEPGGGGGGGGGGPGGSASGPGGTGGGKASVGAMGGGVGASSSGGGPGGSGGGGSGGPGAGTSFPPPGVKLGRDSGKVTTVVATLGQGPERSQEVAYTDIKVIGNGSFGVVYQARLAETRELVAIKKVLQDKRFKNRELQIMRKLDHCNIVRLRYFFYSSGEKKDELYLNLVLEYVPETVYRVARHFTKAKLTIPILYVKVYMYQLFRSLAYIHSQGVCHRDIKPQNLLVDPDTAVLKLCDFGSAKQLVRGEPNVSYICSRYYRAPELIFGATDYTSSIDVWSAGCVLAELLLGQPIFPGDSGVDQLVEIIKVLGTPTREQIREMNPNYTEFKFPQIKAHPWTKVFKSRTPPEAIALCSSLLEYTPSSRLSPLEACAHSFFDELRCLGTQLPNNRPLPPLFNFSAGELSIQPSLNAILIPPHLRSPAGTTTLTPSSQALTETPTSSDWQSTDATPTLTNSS
Ribosomal protein S6 kinase alpha-5 (Homo sapiens), sequence (O75582 whole entry, looked up, the tested form may be a part, canonical isoform): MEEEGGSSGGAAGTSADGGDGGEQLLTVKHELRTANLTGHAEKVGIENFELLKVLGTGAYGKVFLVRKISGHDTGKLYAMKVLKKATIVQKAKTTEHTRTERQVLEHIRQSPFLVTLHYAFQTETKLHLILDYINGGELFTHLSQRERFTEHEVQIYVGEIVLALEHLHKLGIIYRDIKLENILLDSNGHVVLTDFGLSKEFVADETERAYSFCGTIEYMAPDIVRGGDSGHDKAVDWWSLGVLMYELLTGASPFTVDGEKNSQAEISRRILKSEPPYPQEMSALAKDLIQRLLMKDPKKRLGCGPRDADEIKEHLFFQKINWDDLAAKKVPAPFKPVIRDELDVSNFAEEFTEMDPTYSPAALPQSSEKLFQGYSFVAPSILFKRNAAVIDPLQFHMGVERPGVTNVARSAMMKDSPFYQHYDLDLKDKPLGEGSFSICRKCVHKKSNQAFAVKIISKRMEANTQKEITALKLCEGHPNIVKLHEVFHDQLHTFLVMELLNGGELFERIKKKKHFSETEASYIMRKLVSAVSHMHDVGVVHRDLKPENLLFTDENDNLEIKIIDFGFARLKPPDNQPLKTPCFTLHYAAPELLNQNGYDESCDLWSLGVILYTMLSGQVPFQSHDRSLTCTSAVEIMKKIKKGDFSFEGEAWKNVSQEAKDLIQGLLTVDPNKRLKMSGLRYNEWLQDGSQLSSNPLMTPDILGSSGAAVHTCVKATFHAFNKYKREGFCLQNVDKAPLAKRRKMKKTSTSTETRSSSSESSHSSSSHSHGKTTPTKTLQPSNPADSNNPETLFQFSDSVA
Serine/threonine-protein kinase Nek6 (Homo sapiens), sequence (Q9HC98 whole entry, the tested form may be a part): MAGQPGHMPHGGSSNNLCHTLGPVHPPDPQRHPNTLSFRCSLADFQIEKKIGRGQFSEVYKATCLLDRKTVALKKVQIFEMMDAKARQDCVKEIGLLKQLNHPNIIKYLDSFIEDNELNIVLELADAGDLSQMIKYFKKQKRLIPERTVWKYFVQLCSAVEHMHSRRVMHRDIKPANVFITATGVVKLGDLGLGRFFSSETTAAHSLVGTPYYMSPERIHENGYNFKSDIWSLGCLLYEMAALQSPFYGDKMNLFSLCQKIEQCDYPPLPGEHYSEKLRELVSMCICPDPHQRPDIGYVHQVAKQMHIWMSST
Serine/threonine-protein kinase Sgk1 (Homo sapiens), sequence (O00141 whole entry, the tested form may be a part): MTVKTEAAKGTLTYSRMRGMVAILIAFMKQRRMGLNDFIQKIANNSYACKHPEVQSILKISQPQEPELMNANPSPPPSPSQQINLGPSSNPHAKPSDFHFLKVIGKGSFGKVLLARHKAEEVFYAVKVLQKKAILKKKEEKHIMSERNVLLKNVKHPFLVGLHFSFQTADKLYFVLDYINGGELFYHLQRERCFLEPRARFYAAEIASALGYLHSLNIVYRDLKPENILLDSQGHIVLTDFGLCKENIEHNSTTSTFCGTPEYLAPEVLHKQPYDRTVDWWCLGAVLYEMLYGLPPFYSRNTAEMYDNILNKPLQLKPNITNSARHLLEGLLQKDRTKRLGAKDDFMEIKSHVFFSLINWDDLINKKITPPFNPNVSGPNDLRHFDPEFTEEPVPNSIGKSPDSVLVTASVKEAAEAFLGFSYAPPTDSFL
Dual specificity mitogen-activated protein kinase kinase 6 (Homo sapiens), sequence (P52564 whole entry, the tested form may be a part): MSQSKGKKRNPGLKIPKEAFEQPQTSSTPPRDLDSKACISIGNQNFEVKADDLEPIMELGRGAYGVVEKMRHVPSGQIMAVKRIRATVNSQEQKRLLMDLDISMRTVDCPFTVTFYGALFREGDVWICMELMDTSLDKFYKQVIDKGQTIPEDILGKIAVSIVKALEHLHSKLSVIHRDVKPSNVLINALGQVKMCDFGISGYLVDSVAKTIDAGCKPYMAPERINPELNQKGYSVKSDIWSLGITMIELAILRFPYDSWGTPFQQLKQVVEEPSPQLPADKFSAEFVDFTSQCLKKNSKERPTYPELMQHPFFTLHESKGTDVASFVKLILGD

## O=C(Nc1cc(-c2cn(CCNc3c4c(nc5ccccc35)CCCC4)nn2)ccn1)Nc1cccc2c1C1CCCCN1C2=O (racemic)
[1]
  Activity: 100%
[2]
  Activity: 1.6%
[3]
  Activity: 40%
[4]
  Activity: 100%
[5]
  Activity: 28%
[6]
  Activity: 0.3%
[7]
  Activity: 25%
[8]
  Activity: 68%
[9]
  Activity: 1%
[10]
  Activity: 63%
[11]
  Activity: 12%
[12]
  Activity: 4.2%
[13]
  Activity: 75%
[14]
  Activity: 22%
[15]
  Activity: 55%
[16]
  Activity: 93%
[17]
  Activity: 7.5%
[18]
  Activity: 0.3%
[19]
  Activity: 53%
[20]
  Activity: 28%
MDR1
  efflux ratio: 1.51
[21]
  Activity: 15%
[22]
  Activity: 15%
[23]
  Activity: 75%
[24]
  Activity: 73%
